Where “and” joins values, the source holds several entries; their conditions need not be identical. Equal entries are not always repeated. Toxic doses and inconclusive results are not listed. Rule as the data show it: active = T/C of 150% or more; inactive = T/C below 125%.
Tested on: L1210 leukemia ip in BDF1 mice, survival T/C
Assay: NCI In Vivo Anticancer Drug Screen. Data for tumor model L1210 Leukemia (intraperitoneal) in B6D2F1 (BDF1) mice
Conditions: endpoint: mean survival time, higher = longer survival
Summary of the method: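 Transplanted-tumor mice were given test agent; controls received vehicle only. Survival readings from the two groups were divided (treated over control).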

[1] = dose: 100.0 mg/kg/injection, schedule: Q01DX001 (ip), vehicle: saline
[2] = dose: 100.0 mg/kg/injection, schedule: Q01DX009 (ip), vehicle: saline
[3] = dose: 200.0 mg/kg/injection, schedule: Q01DX001 (ip), vehicle: saline
[4] = dose: 200.0 mg/kg/injection, schedule: Q01DX009 (ip), vehicle: saline
[5] = dose: 400.0 mg/kg/injection, schedule: Q01DX001 (ip), vehicle: saline
[6] = dose: 50.0 mg/kg/injection, schedule: Q01DX009 (ip), vehicle: Klucel (hydroxypropylcellulose) (HPC)
[7] = dose: 100.0 mg/kg/injection, schedule: Q01DX009 (ip), vehicle: Klucel (hydroxypropylcellulose) (HPC)
[8] = dose: 200.0 mg/kg/injection, schedule: Q01DX009 (ip), vehicle: Klucel (hydroxypropylcellulose) (HPC)
[9] = dose: 100.0 mg/kg/injection, schedule: Q04DX003 (ip), vehicle: saline
[10] = dose: 200.0 mg/kg/injection, schedule: Q04DX003 (ip), vehicle: saline
[11] = dose: 400.0 mg/kg/injection, schedule: Q04DX003 (ip), vehicle: saline
[12] = dose: 100.0 mg/kg/injection, schedule: Q04DX003 (ip), vehicle: Klucel (hydroxypropylcellulose) (HPC)
[13] = dose: 200.0 mg/kg/injection, schedule: Q04DX003 (ip), vehicle: Klucel (hydroxypropylcellulose) (HPC)
[14] = dose: 400.0 mg/kg/injection, schedule: Q04DX003 (ip), vehicle: Klucel (hydroxypropylcellulose) (HPC)
[15] = dose: 100.0 mg/kg/injection, schedule: Q01DX001 (ip), vehicle: carboxymethylcellulose (CMC)
[16] = dose: 200.0 mg/kg/injection, schedule: Q01DX001 (ip), vehicle: carboxymethylcellulose (CMC)
[17] = dose: 400.0 mg/kg/injection, schedule: Q01DX001 (ip), vehicle: carboxymethylcellulose (CMC)

Measured: T/C

C=C1C(=O)OC2C1C(OC(=O)/C(C)=C/COC(C)=O)CC1(CO1)C1C(O)C=C(C)C21 (stereo not given)
inactive: dose: 12.5 mg/kg/injection, schedule: Q01DX009 (ip), vehicle: alcohol 103 % of control | dose: 25.0 mg/kg/injection, schedule: Q01DX009 (ip), vehicle: alcohol 105 % of control | dose: 50.0 mg/kg/injection, schedule: Q01DX009 (ip), vehicle: alcohol 105 % of control and 107 % of control

O=C(CSc1cc(Cl)ccc1Cl)Nc1ccc(Cl)cc1Cl
inactive: dose: 100.0 mg/kg/injection, schedule: Q04DX003 (ip), vehicle: carboxymethylcellulose (CMC) 92 % of control | dose: 200.0 mg/kg/injection, schedule: Q04DX003 (ip), vehicle: carboxymethylcellulose (CMC) 95 % of control

C/C(CCc1ccccc1)=N/N(C)C
inactive: [1] 97 % of control | [2] 94 % of control | [3] 95 % of control | [4] 91 % of control | [5] 96 % of control

COc1cc(-c2cc(-c3ccccc3)c3cc(Cl)ccc3n2)cc(OC)c1OC
inactive: [6] 90 % of control | [7] 88 % of control | [8] 93 % of control

CC(C)(C)C(=O)CN
inactive: [1] 116 % of control | [2] 101 % of control and 104 % of control | [9] 101 % of control | [3] 119 % of control | [4] 93 % of control and 97 % of control | [10] 109 % of control | [5] 122 % of control | dose: 400.0 mg/kg/injection, schedule: Q01DX009 (ip), vehicle: saline 101 % of control | [11] 93 % of control

CC1=CC(=O)[C@@H](O)[C@]2(C)[C@H]3[C@@]4(O)OC[C@]35[C@H]([C@@H](C)[C@H]4O)[C@@H](O)C(=O)O[C@@H]5C[C@@H]12
inactive: dose: 2.5 mg/kg/injection, schedule: Q01DX009 (ip), vehicle: saline 107 % of control | dose: 5.0 mg/kg/injection, schedule: Q01DX009 (ip), vehicle: saline 96 % of control | dose: 10.0 mg/kg/injection, schedule: Q01DX009 (ip), vehicle: saline 102 % of control | dose: 20.0 mg/kg/injection, schedule: Q01DX009 (ip), vehicle: saline 100 % of control

CCOC(CN(C(C)=O)C1(c2ccc(OC)c(OC)c2)C(=O)c2ccccc2C1=O)OCC
inactive: dose: 100.0 mg/kg/injection, schedule: Q01DX001 (ip), vehicle: Klucel (hydroxypropylcellulose) (HPC) 110 % of control | dose: 200.0 mg/kg/injection, schedule: Q01DX001 (ip), vehicle: Klucel (hydroxypropylcellulose) (HPC) 105 % of control | dose: 400.0 mg/kg/injection, schedule: Q01DX001 (ip), vehicle: Klucel (hydroxypropylcellulose) (HPC) 98 % of control

CSc1nc(N)c(C(N)=O)cc1C#N
inactive: dose: 100.0 mg/kg/injection, schedule: Q04DX003 (ip), vehicle: saline with Tween-80 89 % of control | dose: 200.0 mg/kg/injection, schedule: Q04DX003 (ip), vehicle: saline with Tween-80 89 % of control | dose: 400.0 mg/kg/injection, schedule: Q04DX003 (ip), vehicle: saline with Tween-80 87 % of control

Oc1c(Br)cc(Br)cc1C=Nc1ccccc1.Oc1c(Br)cc(Br)cc1C=Nc1ccccc1.[Co]
inactive: [9] 92 % of control | [10] 98 % of control | [11] 98 % of control

Cc1cccc(CN2CCN(C(c3ccccc3)c3ccc(Cl)cc3)CC2)c1 (stereo not given)
inactive: dose: 25.0 mg/kg/injection, schedule: Q01DX009 (ip), vehicle: Klucel (hydroxypropylcellulose) (HPC) 100 % of control | dose: 25.0 mg/kg/injection, schedule: Q04DX003 (ip), vehicle: Klucel (hydroxypropylcellulose) (HPC) 100 % of control | [6] 100 % of control | dose: 50.0 mg/kg/injection, schedule: Q04DX003 (ip), vehicle: Klucel (hydroxypropylcellulose) (HPC) 110 % of control | [7] 94 % of control | [12] 105 % of control | [8] 87 % of control | [13] 118 % of control | [14] 89 % of control

c1ccc([P+](c2ccccc2)(c2ccccc2)C2CC2)cc1
inactive: dose: 5.0 mg/kg/injection, schedule: Q01DX001 (ip), vehicle: saline 93 % of control | dose: 10.0 mg/kg/injection, schedule: Q01DX001 (ip), vehicle: saline 101 % of control | dose: 20.0 mg/kg/injection, schedule: Q01DX001 (ip), vehicle: saline 104 % of control | dose: 40.0 mg/kg/injection, schedule: Q01DX001 (ip), vehicle: saline 104 % of control

O=C1C(=O)c2ccccc2C(O)=C1Sc1ccc(Cl)cc1
inactive: dose: 75.0 mg/kg/injection, schedule: Q01DX001 (ip), vehicle: carboxymethylcellulose (CMC) 103 % of control | dose: 150.0 mg/kg/injection, schedule: Q01DX001 (ip), vehicle: carboxymethylcellulose (CMC) 98 % of control | dose: 300.0 mg/kg/injection, schedule: Q01DX001 (ip), vehicle: carboxymethylcellulose (CMC) 98 % of control

CCOc1ccc(C(=O)Nc2ccc(C3=NCCN3)cc2)cc1C(=O)Nc1ccc(C2=NCCN2)cc1
inactive: dose: 30.0 mg/kg/injection, schedule: Q01DX Z (oral), vehicle: saline 93 % of control | dose: 60.0 mg/kg/injection, schedule: Q01DX Z (oral), vehicle: saline 91 % of control | dose: 62.5 mg/kg/injection, schedule: Q01DX010 (oral), vehicle: saline 107 % of control | dose: 120.0 mg/kg/injection, schedule: Q01DX Z (oral), vehicle: saline 103 % of control | dose: 125.0 mg/kg/injection, schedule: Q01DX010 (oral), vehicle: saline 112 % of control | dose: 240.0 mg/kg/injection, schedule: Q01DX Z (oral), vehicle: saline 92 % of control | dose: 250.0 mg/kg/injection, schedule: Q01DX010 (oral), vehicle: saline 112 % of control | dose: 500.0 mg/kg/injection, schedule: Q01DX010 (oral), vehicle: saline 106 % of control

CCCCn1cnc2ccc3[nH]c(C)nc3c2c1=O
inactive: dose: 12.5 mg/kg/injection, schedule: Q01DX001 (ip), vehicle: carboxymethylcellulose (CMC) 104 % of control | dose: 25.0 mg/kg/injection, schedule: Q01DX001 (ip), vehicle: carboxymethylcellulose (CMC) 96 % of control

O=C1c2ccccc2C(=O)c2cc(-c3ccccc3)ccc21
inactive: dose: 100.0 mg/kg/injection, schedule: Q01DX001 (ip), vehicle: saline with Tween-80 90 % of control | dose: 200.0 mg/kg/injection, schedule: Q01DX001 (ip), vehicle: saline with Tween-80 93 % of control | dose: 400.0 mg/kg/injection, schedule: Q01DX001 (ip), vehicle: saline with Tween-80 87 % of control

CC(=O)Oc1ccc(OC(C)=O)c2cc3ccccc3cc12
inactive: [15] 87 % of control | [16] 93 % of control | [17] 91 % of control

CCCCCCSC1=C(SCCCCCC)C(=O)c2[nH]cnc2C1=O
inactive: dose: 50.0 mg/kg/injection, schedule: Q01DX001 (ip), vehicle: carboxymethylcellulose (CMC) 100 % of control | [15] 95 % of control | [16] 90 % of control | [17] 90 % of control

Cc1nonc1C
inactive: dose: 31.2 mg/kg/injection, schedule: Q01DX Z (ip), vehicle: other 100 % of control | dose: 62.5 mg/kg/injection, schedule: Q01DX Z (ip), vehicle: other 90 % of control | [12] 103 % of control | dose: 125.0 mg/kg/injection, schedule: Q01DX Z (ip), vehicle: other 88 % of control | [13] 98 % of control | dose: 250.0 mg/kg/injection, schedule: Q01DX Z (ip), vehicle: other 90 % of control | [14] 106 % of control

NNc1ccccc1Br
inactive: [9] 101 % of control | [10] 102 % of control

Reference: PubChem BioAssay AID248 (DTP/NCI, 2004)
